According to patent publication EP4691458A1, “SELF-MICROEMULSION PHARMACEUTICAL PREPARATION COMPOSITION CONTAINING ALK KINASE INHIBITOR AND PREPARATION METHOD THEREFOR” (Shouyao Holdings (Beijing) Co., Ltd., priority 2023, dated 2024):

Columns and labels:
[1] = Thermal stability of the compound of formula (I); assay type: physicochemical; conditions: degradation impurities generated at high temperatures
Procedure: (§1) The compound of formula (I) has strong hydrophobicity, poor water solubility, and significant pH dependence. It has high solubility at low pH (about 30 mg/ml at pH 1.2), and the solubility decreases sharply with increasing pH (about 10 ug/ml in water). […] Therefore, it is an urgent problem to overcome the shortcomings of the compound of formula (I), such as strong hydrophobicity, poor water solubility, and thermal instability, and to prepare it into a formulation with stable quality, good patient compliance, and wide clinical applicability.

[2] = Solubility of the compound of formula (I) at different pH; assay type: physicochemical
Procedure: as §1

## COc1cc(N2CCC(N(C)C)CC2)ccc1Nc1nc2c(c(Nc3ccccc3S(=O)(=O)C(C)C)n1)CCN2 [compound of formula (I), N^2-(4-(4-(dimethylamino)piperidin-1-yl)-2-methoxyphenyl)-N^4-(2-(isopropylsulfonyl)phenyl)-6,7-dihydro-5H-pyrrolo[2,3-d]pyrimidine-2,4-diamine]
[1]
  thermal stability: thermally unstable
[2]; in water
  solubility: ~0.01 mg/mL
[2]; simulated gastric fluid, at pH 1.2
  solubility: ~30 mg/mL
